Test results reported in ChEMBL document CHEMBL3856285, “Recent progress in the identification of adenosine monophosphate-activated protein kinase (AMPK) activators” (Bioorg Med Chem Lett, 2016).

Experiments:
[1] = target: T1, AMP-activated protein kinase (AMPK) alpha-1/beta-1/gamma-1 (Homo sapiens, UniProt P54619+Q13131+Q9Y478); experiment: Activation of full length human recombinant N-terminal GST-tagged AMPK alpha1/beta1/gamma1 expressed in baculovirus infected High Five cells using NH2-HMRSAMSGLHLVKRR CONH2 substrate after 60 mins by ADP-Glo kinase assay; parameters: species or system BTI-TN-5B1-4
T1 sequence (P54619 whole entry, the tested form may be a part): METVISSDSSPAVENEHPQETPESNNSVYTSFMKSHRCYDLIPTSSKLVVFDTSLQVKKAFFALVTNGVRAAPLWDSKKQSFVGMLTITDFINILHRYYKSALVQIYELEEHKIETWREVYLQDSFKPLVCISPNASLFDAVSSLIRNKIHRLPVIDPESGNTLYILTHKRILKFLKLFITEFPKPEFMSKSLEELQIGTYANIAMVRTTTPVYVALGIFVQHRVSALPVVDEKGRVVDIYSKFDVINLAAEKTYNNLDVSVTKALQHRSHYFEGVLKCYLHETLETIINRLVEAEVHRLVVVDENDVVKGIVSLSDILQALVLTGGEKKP
T1 sequence (Q9Y478 whole entry, the tested form may be a part): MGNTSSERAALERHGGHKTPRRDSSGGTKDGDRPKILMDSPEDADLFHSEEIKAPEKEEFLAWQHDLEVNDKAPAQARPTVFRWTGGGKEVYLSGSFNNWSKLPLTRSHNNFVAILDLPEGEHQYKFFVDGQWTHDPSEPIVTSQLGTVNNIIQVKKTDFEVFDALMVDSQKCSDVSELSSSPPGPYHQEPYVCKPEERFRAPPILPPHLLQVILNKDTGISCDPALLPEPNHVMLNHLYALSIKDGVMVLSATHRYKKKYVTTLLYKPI
T1 sequence (Q13131 whole entry, the tested form may be a part): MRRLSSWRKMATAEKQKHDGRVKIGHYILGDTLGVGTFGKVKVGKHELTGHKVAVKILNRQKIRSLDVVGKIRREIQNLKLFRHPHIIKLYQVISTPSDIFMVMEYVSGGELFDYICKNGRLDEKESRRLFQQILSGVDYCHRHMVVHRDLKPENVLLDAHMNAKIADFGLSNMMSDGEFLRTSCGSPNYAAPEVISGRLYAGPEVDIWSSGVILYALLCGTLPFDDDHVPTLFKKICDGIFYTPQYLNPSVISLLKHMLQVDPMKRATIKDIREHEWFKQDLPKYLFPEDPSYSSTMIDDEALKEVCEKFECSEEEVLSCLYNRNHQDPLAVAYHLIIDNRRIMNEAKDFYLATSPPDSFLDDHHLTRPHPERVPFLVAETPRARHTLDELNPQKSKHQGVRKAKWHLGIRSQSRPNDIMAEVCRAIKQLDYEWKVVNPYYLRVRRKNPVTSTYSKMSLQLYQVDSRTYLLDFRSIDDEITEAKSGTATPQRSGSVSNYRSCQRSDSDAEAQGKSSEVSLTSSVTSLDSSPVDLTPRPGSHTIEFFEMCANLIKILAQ

[2] = target: AMPK alpha2/beta1/gamma1 (Homo sapiens) (UniProt P54646+P54619+Q9Y478); experiment: Activation of human recombinant AMPK alpha2/beta1/gamma1 expressed in African green monkey COS7 cells assessed as increase in biotinylated […] (1 to 120 residues) peptide phosphorylation at Ser-79 residue measured after 60 mins by Alphascreen assay relative to control; format: cell-based; settings: COS-7
[3] = target: AMPK alpha2/beta2/gamma1 (Homo sapiens) (UniProt P54646+O43741+P54619); experiment: Activation of human recombinant AMPK alpha2/beta2/gamma1 expressed in African green monkey COS7 cells assessed as increase in biotinylated […] (1 to 120 residues) peptide phosphorylation at Ser-79 residue measured after 60 mins by Alphascreen assay relative to control; format: cell-based; settings: COS-7
[4] = target: AMP-activated protein kinase (AMPK) alpha-1/beta-1/gamma-1 (Homo sapiens) (UniProt P54619+Q9Y478+Q13131); experiment: Activation of human recombinant AMPK alpha1/beta1/gamma1 expressed in African green monkey COS7 cells assessed as increase in biotinylated […] (1 to 120 residues) peptide phosphorylation at Ser-79 residue measured after 60 mins by Alphascreen assay relative to control; format: cell-based; settings: COS-7
AMPK alpha1/beta2/gamma1 [5] = target: T2, AMPK alpha1/beta2/gamma1 (Homo sapiens, UniProt O43741+P54619+Q13131); experiment: Activation of human recombinant AMPK alpha1/beta2/gamma1 expressed in African green monkey COS7 cells assessed as increase in biotinylated […] (1 to 120 residues) peptide phosphorylation at Ser-79 residue measured after 60 mins by Alphascreen assay relative to control; format: cell-based; settings: COS-7
[6] = target: AMPK alpha2/beta2/gamma3 (Homo sapiens) (UniProt P54646+O43741+Q9UGI9); experiment: Activation of human recombinant AMPK alpha2/beta2/gamma3 expressed in African green monkey COS7 cells assessed as increase in biotinylated […] (1 to 120 residues) peptide phosphorylation at Ser-79 residue measured after 60 mins by Alphascreen assay relative to control; format: cell-based; settings: COS-7
AMPK alpha2/beta2/gamma3 = AMPK alpha2/beta2/gamma3 (Homo sapiens, UniProt O43741+P54646+Q9UGI9); experiment: Activation of human recombinant AMPK alpha2/beta2/gamma3 expressed in African green monkey COS7 cells assessed as increase in biotinylated […] (1 to 120 residues) peptide phosphorylation at Ser-79 residue measured after 60 mins by Alphascreen assay; format: cell-based, COS-7
Sequence of AMPK alpha2/beta2/gamma3 (P54646 whole entry, the tested form may be a part): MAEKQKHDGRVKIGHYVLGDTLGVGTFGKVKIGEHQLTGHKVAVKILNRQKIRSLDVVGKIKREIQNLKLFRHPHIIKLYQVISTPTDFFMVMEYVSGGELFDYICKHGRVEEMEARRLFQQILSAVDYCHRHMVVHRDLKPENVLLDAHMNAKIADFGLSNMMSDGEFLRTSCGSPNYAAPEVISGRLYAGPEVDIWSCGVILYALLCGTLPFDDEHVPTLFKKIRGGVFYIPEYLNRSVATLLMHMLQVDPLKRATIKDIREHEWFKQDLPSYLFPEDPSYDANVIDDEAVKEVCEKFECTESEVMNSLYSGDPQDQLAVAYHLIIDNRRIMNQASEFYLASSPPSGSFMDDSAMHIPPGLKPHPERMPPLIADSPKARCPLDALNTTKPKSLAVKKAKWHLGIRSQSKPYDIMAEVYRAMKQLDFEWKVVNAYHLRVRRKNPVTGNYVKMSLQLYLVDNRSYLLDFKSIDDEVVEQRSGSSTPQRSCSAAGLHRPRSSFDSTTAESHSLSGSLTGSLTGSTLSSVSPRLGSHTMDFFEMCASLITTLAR
Sequence of AMPK alpha2/beta2/gamma3 (O43741 whole entry, the tested form may be a part): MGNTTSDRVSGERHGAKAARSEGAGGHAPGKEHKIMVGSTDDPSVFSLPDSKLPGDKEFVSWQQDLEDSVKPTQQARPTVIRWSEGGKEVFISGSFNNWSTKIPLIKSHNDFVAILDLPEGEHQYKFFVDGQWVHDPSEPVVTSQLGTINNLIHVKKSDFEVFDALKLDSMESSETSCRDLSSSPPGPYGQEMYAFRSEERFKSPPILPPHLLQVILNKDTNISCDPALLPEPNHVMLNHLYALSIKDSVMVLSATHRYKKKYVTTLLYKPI
Sequence of AMPK alpha2/beta2/gamma3 (Q9UGI9 whole entry, the tested form may be a part): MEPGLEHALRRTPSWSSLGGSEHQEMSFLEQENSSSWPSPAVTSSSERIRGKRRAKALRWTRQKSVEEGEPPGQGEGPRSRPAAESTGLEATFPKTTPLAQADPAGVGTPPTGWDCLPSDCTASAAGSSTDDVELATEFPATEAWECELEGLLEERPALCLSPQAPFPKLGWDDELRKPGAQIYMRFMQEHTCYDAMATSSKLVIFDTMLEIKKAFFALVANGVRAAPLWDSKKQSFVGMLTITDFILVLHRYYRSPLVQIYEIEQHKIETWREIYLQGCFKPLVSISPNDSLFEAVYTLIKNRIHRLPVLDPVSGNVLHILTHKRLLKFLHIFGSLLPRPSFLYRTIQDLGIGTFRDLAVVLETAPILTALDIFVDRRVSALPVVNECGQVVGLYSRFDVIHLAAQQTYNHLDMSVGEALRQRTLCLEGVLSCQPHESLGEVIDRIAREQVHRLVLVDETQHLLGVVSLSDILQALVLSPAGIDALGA

AMPK alpha2/beta2/gamma1 = AMPK alpha2/beta2/gamma1 (Homo sapiens, UniProt O43741+P54619+P54646); experiment: Activation of human recombinant AMPK alpha2/beta2/gamma1 expressed in African green monkey COS7 cells assessed as increase in biotinylated […] (1 to 120 residues) peptide phosphorylation at Ser-79 residue measured after 60 mins by Alphascreen assay; format: cell-based, COS-7
Sequence of AMPK alpha2/beta2/gamma1 (P54646 whole entry, the tested form may be a part): as the sequence (P54646 whole entry, the tested form may be a part) above
Sequence of AMPK alpha2/beta2/gamma1 (O43741 whole entry, the tested form may be a part): as the sequence (O43741 whole entry, the tested form may be a part) above
Sequence of AMPK alpha2/beta2/gamma1 (P54619 whole entry, the tested form may be a part): as the sequence (P54619 whole entry, the tested form may be a part) above

AMPK alpha1/beta2/gamma1 [7] = target: T2, AMPK alpha1/beta2/gamma1; experiment: Activation of human recombinant AMPK alpha1/beta2/gamma1 expressed in African green monkey COS7 cells assessed as increase in biotinylated […] (1 to 120 residues) peptide phosphorylation at Ser-79 residue measured after 60 mins by Alphascreen assay; format: cell-based, COS-7
[8] = target: T1, AMP-activated protein kinase (AMPK) alpha-1/beta-1/gamma-1; experiment: Activation of human recombinant AMPK alpha1/beta1/gamma1 expressed in African green monkey COS7 cells assessed as increase in biotinylated […] (1 to 120 residues) peptide phosphorylation at Ser-79 residue measured after 60 mins by Alphascreen assay; format: cell-based, COS-7
AMPK alpha2/beta1/gamma1 = AMPK alpha2/beta1/gamma1 (Homo sapiens, UniProt P54619+P54646+Q9Y478); experiment: Activation of human recombinant AMPK alpha2/beta1/gamma1 expressed in African green monkey COS7 cells assessed as increase in biotinylated […] (1 to 120 residues) peptide phosphorylation at Ser-79 residue measured after 60 mins by Alphascreen assay; format: cell-based, COS-7
Sequence of AMPK alpha2/beta1/gamma1 (P54646 whole entry, the tested form may be a part): as the sequence (P54646 whole entry, the tested form may be a part) above
Sequence of AMPK alpha2/beta1/gamma1 (P54619 whole entry, the tested form may be a part): as the sequence (P54619 whole entry, the tested form may be a part) above
Sequence of AMPK alpha2/beta1/gamma1 (Q9Y478 whole entry, the tested form may be a part): as the sequence (Q9Y478 whole entry, the tested form may be a part) above

Row | Structure (SMILES) | EC50 [1] [nM] | fold change (FC) [2] | fold change (FC) [3] | fold change (FC) [4] | fold change (FC) (AMPK alpha1/beta2/gamma1 [5]) | fold change (FC) [6] | EC50 (AMPK alpha2/beta2/gamma3) [nM] | EC50 (AMPK alpha2/beta2/gamma1) [nM] | EC50 (AMPK alpha1/beta2/gamma1 [7]) [nM] | EC50 [8] [nM] | EC50 (AMPK alpha2/beta1/gamma1) [nM]
1 | CS(=O)(=O)Nc1ccc(-c2ccc(-c3nc4nc(O[C@@H]5CO[C@H]6[C@@H]5OC[C@H]6O)[nH]c4cc3Cl)cc2)c(F)c1 | 3 | – | – | – | – | – | – | – | – | – | –
2 | Oc1cccc(O)c1-c1ccc(-c2cc3nc(O[C@@H]4CO[C@H]5[C@@H]4OC[C@H]5O)[nH]c3cc2Cl)cc1 | – | 13 | 13 | 27 | 10 | 16 | 4 | 2 | 4 | 11 | 27
